Results taken from patent US8808743B2, “Benzonatate compositions and methods of use” (priority 2010, dated 2014).

Test: Simulated gastrointestinal dissolution testing (FloVitro apparatus, USP simulated gastric and intestinal fluids)
Assay type: physicochemical
Conditions: 100 mg dose
Description: The dissolution test used procedures devised by DOW Chemical using their proprietary FloVitro™ dissolution apparatus described in U.S. Pat. No. 6,799,123B2 and in the publication titled “FloVitro™ Technology” published online at:
The system used two different media that were combined during the process. The fluid flow rates were:
Simulated gastric fluid=7.7 ml/min
Simulated intestinal fluid=13.1 ml/mi
Total flow through analyzer=20.8 ml/min
To Cell 1: USP simulated gastric fluid (no pepsin)
To Cell 2: USP simulated intestinal fluid (pH 6.8) (SIF)
The samples tested were: • a) 100 mg dose neat benzonatate • b) 220.48 mg of IRP69H resinate: 87.97 mg benzonatate dose • c) 225.15 mg of IRP64H resinate: 102.21 mg benzonatate dose a) 100 mg Neat Benzonatate

Concentration of Homolog in Effluent Total (120 min): 18.66 mg/L
Concentration of Homolog in Effluent n = 3 (120 min): 0.05 mg/L
Concentration of Homolog in Effluent n = 4 (120 min): 0.20 mg/L
Concentration of Homolog in Effluent n = 5 (120 min): 0.53 mg/L
Concentration of Homolog in Effluent n = 6 (120 min): 1.18 mg/L
Concentration of Homolog in Effluent n = 7 (120 min): 1.99 mg/L
Concentration of Homolog in Effluent n = 8 (120 min): 2.67 mg/L
Concentration of Homolog in Effluent n = 9 (120 min): 3.01 mg/L
Concentration of Homolog in Effluent n = 10 (120 min): 2.84 mg/L
Concentration of Homolog in Effluent n = 11 (120 min): 2.44 mg/L
Concentration of Homolog in Effluent n = 12 (120 min): 1.73 mg/L
Concentration of Homolog in Effluent n = 13 (120 min): 1.13 mg/L
Concentration of Homolog in Effluent n = 14 (120 min): 0.59 mg/L
Concentration of Homolog in Effluent n = 15 (120 min): 0.31 mg/L
Concentration of Homolog in Effluent n = 16 (120 min): 0.00 mg/L
Concentration of Homolog in Effluent n = 17 (120 min): 0.00 mg/L
Cumul. (cumulative release in effluent) (120 min): 81.10 mg
Concentration of Homolog in Effluent Total (180 min): 9.68 mg/L
Concentration of Homolog in Effluent n = 3 (180 min): 0.00 mg/L
Concentration of Homolog in Effluent n = 4 (180 min): 0.10 mg/L
Concentration of Homolog in Effluent n = 5 (180 min): 0.29 mg/L
Concentration of Homolog in Effluent n = 6 (180 min): 0.61 mg/L
Concentration of Homolog in Effluent n = 7 (180 min): 1.04 mg/L
Concentration of Homolog in Effluent n = 8 (180 min): 1.41 mg/L
Concentration of Homolog in Effluent n = 9 (180 min): 1.57 mg/L
Concentration of Homolog in Effluent n = 10 (180 min): 1.51 mg/L
Concentration of Homolog in Effluent n = 11 (180 min): 1.26 mg/L
Concentration of Homolog in Effluent n = 12 (180 min): 0.90 mg/L
Concentration of Homolog in Effluent n = 13 (180 min): 0.57 mg/L
Concentration of Homolog in Effluent n = 14 (180 min): 0.30 mg/L
Concentration of Homolog in Effluent n = 15 (180 min): 0.11 mg/L
Concentration of Homolog in Effluent n = 16 (180 min): 0.00 mg/L
Concentration of Homolog in Effluent n = 17 (180 min): 0.00 mg/L
Cumul. (cumulative release in effluent) (180 min): 90.57 mg
Concentration of Homolog in Effluent Total (240 min): 5.50 mg/L
Concentration of Homolog in Effluent n = 3 (240 min): 0.00 mg/L
Concentration of Homolog in Effluent n = 4 (240 min): 0.06 mg/L
Concentration of Homolog in Effluent n = 5 (240 min): 0.16 mg/L
Concentration of Homolog in Effluent n = 6 (240 min): 0.36 mg/L
Concentration of Homolog in Effluent n = 7 (240 min): 0.60 mg/L
Concentration of Homolog in Effluent n = 8 (240 min): 0.78 mg/L
Concentration of Homolog in Effluent n = 9 (240 min): 0.89 mg/L
Concentration of Homolog in Effluent n = 10 (240 min): 0.84 mg/L
Concentration of Homolog in Effluent n = 11 (240 min): 0.70 mg/L
Concentration of Homolog in Effluent n = 12 (240 min): 0.49 mg/L
Concentration of Homolog in Effluent n = 13 (240 min): 0.36 mg/L
Concentration of Homolog in Effluent n = 14 (240 min): 0.17 mg/L
Concentration of Homolog in Effluent n = 15 (240 min): 0.09 mg/L
Concentration of Homolog in Effluent n = 16 (240 min): 0.00 mg/L
Concentration of Homolog in Effluent n = 17 (240 min): 0.00 mg/L
Cumul. (cumulative release in effluent) (240 min): 95.70 mg
Concentration of Homolog in Effluent Total (300 min): 2.73 mg/L
Concentration of Homolog in Effluent n = 3 (300 min): 0.00 mg/L
Concentration of Homolog in Effluent n = 4 (300 min): 0.00 mg/L
Concentration of Homolog in Effluent n = 5 (300 min): 0.09 mg/L
Concentration of Homolog in Effluent n = 6 (300 min): 0.18 mg/L
Concentration of Homolog in Effluent n = 7 (300 min): 0.30 mg/L
Concentration of Homolog in Effluent n = 8 (300 min): 0.41 mg/L
Concentration of Homolog in Effluent n = 9 (300 min): 0.45 mg/L
Concentration of Homolog in Effluent n = 10 (300 min): 0.42 mg/L
Concentration of Homolog in Effluent n = 11 (300 min): 0.39 mg/L
Concentration of Homolog in Effluent n = 12 (300 min): 0.25 mg/L
Concentration of Homolog in Effluent n = 13 (300 min): 0.15 mg/L
Concentration of Homolog in Effluent n = 14 (300 min): 0.09 mg/L
Concentration of Homolog in Effluent n = 15 (300 min): 0.00 mg/L
Concentration of Homolog in Effluent n = 16 (300 min): 0.00 mg/L
Concentration of Homolog in Effluent n = 17 (300 min): 0.00 mg/L
Cumul. (cumulative release in effluent) (300 min): 98.15 mg
Concentration of Homolog in Effluent Total (360 min): 1.20 mg/L
Concentration of Homolog in Effluent n = 3 (360 min): 0.00 mg/L
Concentration of Homolog in Effluent n = 4 (360 min): 0.00 mg/L
Concentration of Homolog in Effluent n = 5 (360 min): 0.05 mg/L
Concentration of Homolog in Effluent n = 6 (360 min): 0.11 mg/L
Concentration of Homolog in Effluent n = 7 (360 min): 0.15 mg/L
Concentration of Homolog in Effluent n = 8 (360 min): 0.19 mg/L
Concentration of Homolog in Effluent n = 9 (360 min): 0.23 mg/L
Concentration of Homolog in Effluent n = 10 (360 min): 0.20 mg/L
Concentration of Homolog in Effluent n = 11 (360 min): 0.17 mg/L
Concentration of Homolog in Effluent n = 12 (360 min): 0.10 mg/L
Concentration of Homolog in Effluent n = 13 (360 min): 0.00 mg/L
Concentration of Homolog in Effluent n = 14 (360 min): 0.00 mg/L
Concentration of Homolog in Effluent n = 15 (360 min): 0.00 mg/L
Concentration of Homolog in Effluent n = 16 (360 min): 0.00 mg/L
Concentration of Homolog in Effluent n = 17 (360 min): 0.00 mg/L
Cumul. (cumulative release in effluent) (360 min): 99.32 mg
Concentration of Homolog in Effluent Total (420 min): 0.67 mg/L
Concentration of Homolog in Effluent n = 3 (420 min): 0.00 mg/L
Concentration of Homolog in Effluent n = 4 (420 min): 0.00 mg/L
Concentration of Homolog in Effluent n = 5 (420 min): 0.00 mg/L
Concentration of Homolog in Effluent n = 6 (420 min): 0.06 mg/L
Concentration of Homolog in Effluent n = 7 (420 min): 0.08 mg/L
Concentration of Homolog in Effluent n = 8 (420 min): 0.11 mg/L
Concentration of Homolog in Effluent n = 9 (420 min): 0.12 mg/L
Concentration of Homolog in Effluent n = 10 (420 min): 0.11 mg/L
Concentration of Homolog in Effluent n = 11 (420 min): 0.09 mg/L
Concentration of Homolog in Effluent n = 12 (420 min): 0.10 mg/L
Concentration of Homolog in Effluent n = 13 (420 min): 0.00 mg/L
Concentration of Homolog in Effluent n = 14 (420 min): 0.00 mg/L
Concentration of Homolog in Effluent n = 15 (420 min): 0.00 mg/L
Concentration of Homolog in Effluent n = 16 (420 min): 0.00 mg/L
Concentration of Homolog in Effluent n = 17 (420 min): 0.00 mg/L
Cumul. (cumulative release in effluent) (420 min): 99.74 mg
Concentration of Homolog in Effluent Total (480 min): 0.00 mg/L
Concentration of Homolog in Effluent n = 3 (480 min): 0.00 mg/L
Concentration of Homolog in Effluent n = 4 (480 min): 0.00 mg/L
Concentration of Homolog in Effluent n = 5 (480 min): 0.00 mg/L
Concentration of Homolog in Effluent n = 6 (480 min): 0.00 mg/L
Concentration of Homolog in Effluent n = 7 (480 min): 0.00 mg/L
Concentration of Homolog in Effluent n = 8 (480 min): 0.00 mg/L
Concentration of Homolog in Effluent n = 9 (480 min): 0.00 mg/L
Concentration of Homolog in Effluent n = 10 (480 min): 0.00 mg/L
Concentration of Homolog in Effluent n = 11 (480 min): 0.00 mg/L
Concentration of Homolog in Effluent n = 12 (480 min): 0.00 mg/L
Concentration of Homolog in Effluent n = 13 (480 min): 0.00 mg/L
Concentration of Homolog in Effluent n = 14 (480 min): 0.00 mg/L
Concentration of Homolog in Effluent n = 15 (480 min): 0.00 mg/L
Concentration of Homolog in Effluent n = 16 (480 min): 0.00 mg/L
Concentration of Homolog in Effluent n = 17 (480 min): 0.00 mg/L
Compound: CCCCNc1ccc(C(=O)OCCOCCOCCOCCOCCOCCOCCOCCOCCOC)cc1 [BENZ, benzonatate]
